Reference: patent publication US20260169011A1, “METHODS AND COMPOSITIONS FOR PROVIDING CUSTOMIZED NUTRITIONAL SUPPLEMENTS” (Vibrant Holdings LLC, priority 2023, published 2026)
Read-outs that look alike come from different tables or passages of the source. Values belong to the compound of their own block, whether it stands above or below them.

How the values were obtained:
[1] = Zone Approach: nutrient zone (Zone 1-5), target nutrient zone and follow-up zone; type: in vivo, human; conditions: Zone Approach, CB followed for three months
Description: The second exemplary approach includes determining nutrient zones, and thus is referred to as the “Zone Approach.” According to some embodiments, the nutrient reference range for individuals can be divided into a number of zones, each indicating a nutrient wellness level. […] In some embodiments, for a given nutrient, each zone is associated with a specific multiplication factor, which can be used to determine the appropriate dosage for the CB. A few exemplary methods following this Zone Approach are further described hereinafter. […] Based on the assessment results, the current zone for each nutrient is determined at step 420a. In some embodiments, the genetic predispositions and cellular levels may influence the determination of the overall zone for a nutrient. […] This adjustment accounts for the impact of genetic polymorphisms and suboptimal cellular levels, each reducing the nutrient's zone by one or more zones. Therefore, this approach takes one or more of cellular and serum nutrient levels, along with their nutrient genetic profile into consideration to determine a given nutrient's overall zone. In the next, the Target Nutrient Zone (TNZ) to which the individual's each nutrient level is to be optimized is determined at step 430. […] In some embodiments, the determined TNZ is used to determine the multiplication factor used to adjust the starting dosage at step 440a, resulting in the CB dosage for each nutrient. In various embodiments, the multiplication factor is a fixed constant value, previously determined for a nutrient when moving from a first zone to a second zone. […] At step 450a, the CB with the determined nutrient dosages is administered to the individual for a predefined period. In some embodiments, a follow-up test is periodically conducted at step 460, to monitor the progress towards the target nutrient levels during the predefined period, for example, to check whether a target zone is reached or not for a given nutrient. In some embodiments, based on the results from the follow-up tests, it is further determined whether the dosage of the CB for a nutrient requires adjustment. If the adjustment is necessary, appropriate modification is made to the CB, for example, by increasing the TNZ to increase the nutrient levels. The modified CB is administered to the individual, and a reassessment is conducted again. In some embodiments, the personalized dosage of the nutritional supplement in the CB is modified as above after the at least one, two, three, four, five, six, seven, eight, nine, ten, or more repeats.

[2] = NutriPro test: serum, RBC and WBC nutrient values before and after ATB / customized blend; type: in vivo, human; conditions: for Post-test biomarker level: after ATB; for Pre-test biomarker level: before ATB
Description: The method for providing a nutritional supplement for a subject as disclosed herein is based on a comprehensive panel that assesses intracellular and extracellular levels of at least or up to 41 nutrients. […] Blood analysis using the method disclosed herein tests for nutrient levels in serum, red blood cells (RBCs), and white blood cells (WBCs). Additional genetic testing can assess patients' predispositions toward nutrient deficiencies. Based on the blood and genetic analysis results, a subsequent supplementation diet comprising supplements and food sources can be designed and implemented. The subject can be a human subject.
(§1) In some embodiments, the detection method is mass spectrometry.
The ‘NutriPro’ test is used to assess serum (extracellular), RBC, and WBC (intracellular) nutrient values along with genetic testing for any predispositions with could be affecting nutrient values in the body. If required, additional tests such as the gut zoomer, cardiovascular health, thyroid test, kidney function test, liver function test, etc, are carried out. FIG. 1 provides a schematic diagram of the process of the NutriPro test from the individual subject to the creation of customized nutritional blends.
The ATB is given to the individual for nutritional supplementation, and blood testing for nutrients in serum, RBC, and WBC is carried out after 3 or 6 months.
The assessed change is called the VAF.
After testing, the individual takes the ATB or the customized blend for the amount of time indicated.

[3] = Intracellular (RBC / WBC, cellular) nutrient levels by mass spectrometry; type: in vivo, human; conditions: Level: Cells, person; for Follow-up Nutrient Level: after customized blend; for Actual Nutrient Value (ANV): before customized blend
Description: as §1

[4] = Vibrant Absorption Factor (VAF): difference of post- and pre-supplementation nutrient values divided by ATB dosage
Description: Improvement in nutrition can be determined by comparing the nutrient values in serum, RBC, and WBCs post-nutritional supplementation to the nutrient values in serum, RBC, and WBCs pre-nutritional supplementation. Based on the improvement, the change in the nutrient levels can be attributed to the per milligram dosage of the supplemented nutrients. The assessed nutritional change is the “Vibrant Absorption factor (VAF (see Equation (1) below). The VAF can be used to determine the subject's utilization of the supplemented nutrients, as determined by the difference in extracellular and intracellular nutrient values before and after supplementation. Based on the subject's utility or absorption of the nutrients, the dosage amount of the nutrient needed to be supplemented or increased to effect change of the subject's nutrient values into the optimum nutrient zone can be assessed. In various embodiments, the VAF is determined by administering a pre-determined formulation, referred to herein as the Absorption Testing Blend.
Next, the ATB is administered to the individual for a predefined period at step 320a, after which nutrient levels and the genetic nutrient profile are re-evaluated, to obtain the post-supplementation biomarker values at step 330.
This includes determining the VAF based on the difference between post- and pre-supplementation biomarker values, which is divided by the ATB dosage.
The assessed change is called the VAF. The VAF is used to understand how the individual's body is utilizing these nutrients, depending on the difference in extracellular and intracellular nutrient values before and after supplementation. Based on the body's utility or absorption of the nutrients, the amount of nutrients needed to be supplemented to alter the individual's nutrient values into the optimum nutrient zone is understood. The VAF calculations help in determining the appropriate dosages of nutrients required in the ‘customized blend.’

[5] = in vivo
Description: (§2) In some embodiments, the detection method assesses nutrients both in extracellular plasma and intracellular in RBC and WBC. In some embodiments, the detection method is mass spectroscopy-based. The extracellular and intracellular nutrient levels provide a comprehensive analysis of a subject's nutrient status, reflecting not only the intake levels but also the absorption levels into the cells.
(§3) In some aspects, the extracellular nutrient levels provide a snapshot of the status of nutrient baseline levels at a given time. It is a reflection of a person's diet over a narrow period of time. In contrast, the intracellular levels of nutrients provide information on the absorbed levels of nutrients, thus accounting for factors such as aging, lifestyle, chronic illness, medication, etc. that could interfere with absorption and can change the functional nutritional levels.
(§4) In some embodiments, the detection method is mass spectrometry. In some embodiments, the detection method is Liquid chromatography-mass spectrometry (LC-MS), Gas chromatography-mass spectrometry (GC-MS), or Inductively coupled plasma-mass-spectrometry (ICP-MS). In some embodiments, the detection method is Liquid chromatography-mass spectrometry (LC-MS). In some embodiments, the detection method is Gas chromatography-mass spectrometry (GC-MS). In some embodiments, the detection method is Inductively coupled plasma-mass-spectrometry (ICP-MS).
(§5) In some embodiments, the method provided herein evaluates nutrient levels, both in extracellular serum and inside (intracellular) red blood cells (RBC) and/or white blood cells (WBC). The extracellular nutrient levels provide a snapshot of the status of nutrient baseline levels at a given time. These extracellular nutrient levels are a reflection of a person's diet over a narrow period of time. In contrast, RBCs have a normal lifespan of 120 days, and thus intracellular assessments for nutrients in RBCs can provide information on nutrients over longer periods. Additionally, the intracellular levels of nutrients provide information on the absorbed levels of nutrients, thus accounting for factors such as, but not limited to, aging, lifestyle, chronic illness, and medication, that can interfere with absorption and can change the functional nutritional levels. Moreover, actual nutrient utilization occurs inside the cell owing to cellular metabolic processes. At times, nutrients could be present in serum, but poor cellular uptake may result in cells being devoid of these nutrients, thus giving rise to nutrient deficiencies owing to affected cellular activities. […] As a result, it is important to assess nutrients intracellularly in addition to extracellularly. Thus, the intracellular assessment provides information on cellular uptake and utilization of nutrients at the most fundamental level, enabling understanding of the root cause of nutrient deficiencies.
(§6) The subject individual fills out the health questionnaire (PHQ) which helps establishes factors such as symptoms, complications, comorbidities, and ongoing medications. The subject's blood is drawn and the extracellular serum and intracellular blood cells are tested for nutritional deficiencies via mass spectroscopy (e.g., Liquid chromatography-mass spectrometry (LC-MS), Gas chromatography-mass spectrometry (GC-MS), or Inductively coupled plasma-mass-spectrometry (ICP-MS)).

[6] = cited from earlier work
[7] = Extracellular (serum) nutrient levels by mass spectrometry (LC-MS, GC-MS, ICP-MS); conditions: Level: Serum, person; for Follow-up Nutrient Level: after customized blend; for Actual Nutrient Value (ANV): before customized blend
Description: as §2, §3, §4, §5, §6

[8] = person two, cells, unit not given
[9] = person one, serum, after customized blend

Compound: CCCCC/C=C\C/C=C\CCCCCCCC(=O)O [LA, linoleic acid]
nutrient levels reaching their TNZ at follow-up testing ([1]; Example 4: person three bodybuilder, named nutrients are the exceptions that did not reach the TNZ): supposed to reach the higher Zone 5

Post-test biomarker level [2, 8]: 1.9
Follow-up Biomarker level ([2]; person two, cells, after customized blend, unit not given): 9.4
Pre-test biomarker level [2, 8]: 1.2
Follow-up Nutrient Level ([3]; unit not given): 0.9
Actual Nutrient Value (ANV) ([3]; unit not given): 0.9
VAF ([4]; person two, cells): 0.14
Compound: CC/C=C\C/C=C\C/C=C\C/C=C\C/C=C\C/C=C\CCC(=O)O [DHA]

Compound: Cc1ncc(COP(=O)(O)O)c(C=O)c1O [vitamin B6, Pyridoxal 5-Phosphate]
Actual Nutrient Value (ANV) ([2]; in vivo): 130 ng/mL
Follow-up Nutrient Level ([2]; in vivo): 401 ng/mL
change of nutrient level at follow-up testing ([1]; Example 5: person): moderately increased
nutrient zone at follow-up testing ([1]; Example 5: person): Zone 2
Actual Nutrient Value (ANV) [5]: 0.5 ng/mL
Follow-up Nutrient Level [5]: 0.9 ng/mL

Compound: [Cu] [Copper]
Post-test biomarker level ([2]; person one, serum): 0.9 mg/L
Follow-up Biomarker level [2, 9]: 1.69 mg/L
Pre-test biomarker level ([2]; person one, serum): 0.2 mg/L
UTL ([6]; Table 18, person one): 10 mg/day
Follow-up Nutrient Level [7]: 0.5 µg/mL
Actual Nutrient Value (ANV) [7]: 0.1 µg/mL
VAF ([4]; person one, serum): 8.75

Compound: N[C@@H](CO)C(=O)O [L-Serine]
UTL ([6]; upper tolerable limit): 12000 mg/day
Follow-up Nutrient Level [7]: 51 nmol/mL
Actual Nutrient Value (ANV) [7]: 44 nmol/mL

Compound: [Fe] [Iron]
Follow-up Nutrient Level ([2]; person three, cells, after customized blend): 1.141e+06 ng/mL
Actual Nutrient Value (ANV) ([2]; person three, cells, before customized blend): 620000 ng/mL
Follow-up Nutrient Level ([2]; person three, serum, after customized blend): 1410 ng/mL
Actual Nutrient Value (ANV) ([2]; person three, serum, before customized blend): 220 ng/mL
Follow-up Nutrient Level [3]: 76.5 mg/dL
Actual Nutrient Value (ANV) [3]: 76.5 mg/dL
UTL ([6]; Table 20, person three): 45 mg/day
Follow-up Nutrient Level [7]: 0.19 µg/mL
Actual Nutrient Value (ANV) [7]: 0.14 µg/mL

Compound: C=C1CC[C@H](O)C/C1=C/C=C1\CCC[C@]2(C)[C@@H]([C@H](C)CCCC(C)C)CC[C@@H]12 [Vitamin D3]
Post-test biomarker level ([2]; person one, cells): 18.9 pg/MM WBC
Follow-up Biomarker level ([2]; person one, cells, after customized blend): 212 pg/MM WBC
Pre-test biomarker level ([2]; person one, cells): 12.2 pg/MM WBC
Post-test biomarker level ([2]; person one, serum): 0.0023 mg/L
Follow-up Biomarker level [2, 9]: 0.0087 mg/L
Pre-test biomarker level ([2]; person one, serum): 0.0005 mg/L
Post-test biomarker level ([2]; person two, cells): 18.9 pg/MM WBC
Follow-up Biomarker level ([2]; person two, cells, after customized blend): 221 pg/MM WBC
Pre-test biomarker level ([2]; person two, cells): 12.2 pg/MM WBC
Follow-up Nutrient Level [7]: 0.00072 µg/mL
Actual Nutrient Value (ANV) [7]: 0.0001 µg/mL
VAF ([4]; person one, cells): 0.067
VAF ([4]; person one, serum): 0.018
VAF ([4]; person two, cells): 0.067

Post-test biomarker level ([2]; person one, serum): 18.2 mg/L
Follow-up Biomarker level [2, 9]: 36.5 mg/L
Pre-test biomarker level ([2]; person one, serum): 5.5 mg/L
Post-test biomarker level ([2]; person two, serum): 17.8 mg/L
Follow-up Biomarker level ([2]; person two, serum, after customized blend): 35.4 mg/L
Pre-test biomarker level ([2]; person two, serum): 3.2 mg/L
Follow-up Nutrient Level [7]: 5.4 µg/mL
Actual Nutrient Value (ANV) [7]: 4.2 µg/mL
VAF ([4]; person one, serum): 4.233
VAF ([4]; person two, serum): 4.867
Compound: Vitamin E
